# Several values for one entry are separate records, joined by “and”; a condition that tells them apart may be missing. Identical values can stand only once. Like-named read-outs stand apart in the source and are kept apart here. No end group written: not given here.
# Key:
# LLO [1] = target: T1, LLO (Listeria monocytogenes serovar 1/2a, UniProt P13128); experiment: ELISA, binding of plate-bound MRC-1 peptides to LLO; details: plate-bound peptide, LLO 0–0.5 μM
# Description: Briefly, 96‐well flat‐bottomed plates (Sigma, UK) were coated overnight with 10 μM of MRC‐1 peptides in coating buffer (15 mM Na2CO3, 35 mM NaHCO3, pH 9.6). Wells were blocked with 200 μl of 10% (v/v) FBS in PBS for 2 h and then washed three times with PBS, 0.05% (v/v) Tween 20 (Sigma). 50 μl of purified PLY, LLO, and SLO (0–1 μM) in PBS was added and incubated at 37°C for 1 h. 1 μM BSA was added to control wells. Wells were washed with PBS and bound proteins were detected by adding 100 μl of mouse α‐PLY (1:1,000), mouse α‐SLO (1:400), and rabbit α‐LLO (1:1,500) (Abcam), respectively, in blocking buffer. Plates were incubated with 100 μl of secondary anti‐rabbit/anti‐mouse IgG HRP (1:2,000) dilution in blocking buffer. Bound antibodies were detected by adding 100 μl of tetramethylbenzidine substrate solution for 30 min. Phosphoric acid (1 M) was used as the stop solution and absorbance was measured at 450 nm.
# S. pneumoniae strain T4 = experiment: Hemolytic activity of whole bacteria, S. pneumoniae T4; assay type: cell-based, Streptococcus pneumoniae; details: 100 μM peptide
# Description: (§2) Human blood from anonymous healthy donors (obtained from Karolinska University Hospital) was diluted 1:100 in PBS with 0.5 mM DTT and mixed 1:1 with twofold serial dilutions of 10^8 CFUs of bacteria or 1 μg/ml purified bacterial toxins in 96‐well plates. The MRC‐1 peptides were serially diluted 10‐fold (1–1,000 μM) in PBS and added to the wells prior to addition of blood. The blood was co‐incubated with whole bacteria or purified toxins at 37°C for 1 h, and after 50 min, 0.1% triton X‐100 was added to the positive control wells. Cells were spun down at 400 g for 15 min and the absorbance of the supernatants was measured at 540 nm in a microplate reader. Percentage of lysis compared to the toxin alone was calculated. All samples were assayed in triplicates.
# S. pyogenes type M1T1 = experiment: Hemolytic activity of whole bacteria, S. pyogenes; assay type: cell-based, Streptococcus pyogenes; details: 100 μM peptide
# Description: (§1) All samples were assayed in triplicates.
# L. monocytogenes type 1 = experiment: Hemolytic activity of whole bacteria, L. monocytogenes; assay type: cell-based, Listeria monocytogenes; details: 100 μM peptide
# Description: as §1
# LLO [2] = target: T1, LLO; experiment: LDH cytotoxicity assay, THP-1 macrophages, LLO; assay type: cell-based; details: 100 μM, 18 h; for % cytotoxicity relative to positive control (lysis buffer), LDH: THP-1, LLO 0.5 μg/ml
# Description: Human monocytic leukemia THP‐1 cells (ATCC TIB‐202) were cultivated in R10 medium and maintained at density of 10^6 cells/ml. For differentiation into macrophages, THP‐1 cells were treated for 48 h with 20 ng/ml of phorbol myristate acetate (Sigma).
# Cytotoxicity was determined by measuring the activity of lactate dehydrogenase enzyme released into the culture supernatant using the Cytotoxicity Detection kit (Roche) according to the manufacturer's instructions. The percentage cytotoxicity was calculated by ratio to 100% lysis control (0.1% saponin).
# PLY [3] = target: T2, PLY (Streptococcus pneumoniae serotype 4, UniProt P0C2J9); assay type: cell-based
# LLO [4] = target: T1, LLO; experiment: Live imaging of cytolysis of THP-1 macrophages by LLO; assay type: cell-based; details: 0.5 μg/ml LLO, 100 μM, 20 min
# SLO [5] = target: T3, SLO (Streptococcus pyogenes serotype M1, UniProt P0C0I3); assay type: cell-based
# [6] = system: PLY‐producing pneumococcal strain T4; experiment: Binding of FITC-labeled peptides to pneumococci, fluorescence microscopy; set-up: species or system Streptococcus pneumoniae
# SLO [7] = target: T3, SLO; assay type: cell-based; remark: listed apart in the source
# PLY [8] = target: T2, PLY; assay type: cell-based; remark: listed apart in the source
# PLY [9] = target: T2, PLY; assay type: cell-based; remark: listed apart in the source
# S. pneumoniae T4 = experiment: Bacterial invasion assay, 3D lung epithelial models, CFU after gentamicin; assay type: cell-based, Streptococcus pneumoniae; details: for Mean Colonies at 100X dil, bacterial invasion of lung epithelium models / % entry bacteria= (bacteria uptaken/Input)*100: T4, MOI 10, 2h, 100 μM peptide
# S.pneumoniae T4R = experiment: Co-localization of intracellular T4R with MRC-1 and LC3B in DCs; assay type: cell-based, Streptococcus pneumoniae; details: for % bacteria colocalized with MRC-1 / % bacteria colocalized with LC3B / number of bacteria (of n=50) colocalized with LC3B / number of bacteria (of n=50) colocalized with MRC-1: T4R in DCs
# S.pneumoniae T4RΔply = experiment: Co-localization of intracellular T4RΔply with MRC-1 and LC3B in DCs; assay type: cell-based, Streptococcus pneumoniae; details: for % bacteria colocalized with MRC-1 / % bacteria colocalized with LC3B / number of bacteria (of n=50) colocalized with LC3B / number of bacteria (of n=50) colocalized with MRC-1: T4RΔply in DCs
# LC3B = assay type: cell-based, human
# PLY [10] = target: T2, PLY; details: for % cytotoxicity relative to positive control (lysis buffer), LDH: 18 h
# SLO [11] = target: T3, SLO
# LLO [12] = target: T1, LLO; experiment: Hemolysis assay with purified LLO; details: 1 μg/ml toxin
# Description: as §2
# [13] = Lung histology (H&E) and clinical symptoms after intranasal administration; details: mice
# Description: (F) Hematoxylin and eosin (H&E) staining of mouse lungs at 24 h post intranasal
# T2 sequence (P0C2J9 whole entry, looked up): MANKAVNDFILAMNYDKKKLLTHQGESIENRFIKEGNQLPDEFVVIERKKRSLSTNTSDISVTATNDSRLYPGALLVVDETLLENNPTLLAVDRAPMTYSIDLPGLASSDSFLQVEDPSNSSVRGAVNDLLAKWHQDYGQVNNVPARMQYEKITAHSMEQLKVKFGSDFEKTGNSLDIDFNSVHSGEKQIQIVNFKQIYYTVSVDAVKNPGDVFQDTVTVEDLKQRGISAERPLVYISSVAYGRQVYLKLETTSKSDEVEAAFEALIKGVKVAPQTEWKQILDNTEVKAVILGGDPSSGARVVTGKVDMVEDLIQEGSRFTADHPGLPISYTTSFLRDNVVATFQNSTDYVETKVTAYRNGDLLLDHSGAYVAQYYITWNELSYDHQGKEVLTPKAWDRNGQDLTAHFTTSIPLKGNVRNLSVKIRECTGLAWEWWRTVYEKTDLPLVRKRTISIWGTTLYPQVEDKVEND
# T3 sequence (P0C0I3 34-571 limits assumed): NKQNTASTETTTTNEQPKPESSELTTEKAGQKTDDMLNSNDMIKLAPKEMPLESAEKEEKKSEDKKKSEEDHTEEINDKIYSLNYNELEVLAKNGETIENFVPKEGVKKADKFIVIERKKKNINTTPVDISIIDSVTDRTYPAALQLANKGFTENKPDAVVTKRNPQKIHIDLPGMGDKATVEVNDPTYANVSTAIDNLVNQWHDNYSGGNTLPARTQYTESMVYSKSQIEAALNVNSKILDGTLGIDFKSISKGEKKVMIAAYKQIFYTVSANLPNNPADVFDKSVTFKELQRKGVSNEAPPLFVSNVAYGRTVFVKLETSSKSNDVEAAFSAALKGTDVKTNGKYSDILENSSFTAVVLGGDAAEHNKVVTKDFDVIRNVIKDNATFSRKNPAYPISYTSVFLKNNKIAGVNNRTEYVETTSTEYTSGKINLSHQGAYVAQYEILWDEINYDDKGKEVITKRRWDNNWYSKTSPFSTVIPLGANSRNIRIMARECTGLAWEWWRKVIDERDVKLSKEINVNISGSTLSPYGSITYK
# T1 sequence (P13128 25-529): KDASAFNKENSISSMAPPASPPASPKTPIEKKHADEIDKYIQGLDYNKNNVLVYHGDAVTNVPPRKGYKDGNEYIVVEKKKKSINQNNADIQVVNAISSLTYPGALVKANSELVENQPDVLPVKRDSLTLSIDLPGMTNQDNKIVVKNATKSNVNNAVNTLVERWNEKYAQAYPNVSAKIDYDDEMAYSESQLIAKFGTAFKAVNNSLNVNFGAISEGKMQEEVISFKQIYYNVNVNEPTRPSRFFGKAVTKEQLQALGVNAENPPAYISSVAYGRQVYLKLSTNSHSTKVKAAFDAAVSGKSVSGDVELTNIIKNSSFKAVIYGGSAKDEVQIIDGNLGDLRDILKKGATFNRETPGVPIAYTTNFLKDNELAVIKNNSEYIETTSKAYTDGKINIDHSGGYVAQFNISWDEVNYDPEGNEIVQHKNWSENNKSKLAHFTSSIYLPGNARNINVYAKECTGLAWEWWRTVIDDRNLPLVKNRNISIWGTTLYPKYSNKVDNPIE
sequence,measurement,setting,value
FTWSDGSPVSYEN [P2],binding to LLO in ELISA,LLO [1],bound dose‐dependently
same,hemolytic activity of pneumococcal strain T4,S. pneumoniae strain T4,significantly reduced
same,%hemolytic activity relative to positive control (0.1% Triton X),"S. pneumoniae strain T4; T4 312500 CFU/ml, experiment 1 of 3",-0.1%
same,%hemolytic activity relative to positive control (0.1% Triton X),"S. pneumoniae strain T4; T4 312500 CFU/ml, experiment 2 of 3",4%
same,%hemolytic activity relative to positive control (0.1% Triton X),"S. pneumoniae strain T4; T4 312500 CFU/ml, experiment 3 of 3",4.3%
same,%hemolytic activity relative to positive control (0.1% Triton X),"S. pneumoniae strain T4; T4 625000 CFU/ml, experiment 1 of 3",-0.4%
same,%hemolytic activity relative to positive control (0.1% Triton X),"S. pneumoniae strain T4; T4 625000 CFU/ml, experiment 2 of 3",4.5%
same,%hemolytic activity relative to positive control (0.1% Triton X),"S. pneumoniae strain T4; T4 625000 CFU/ml, experiment 3 of 3",4.7%
same,%hemolytic activity relative to positive control (0.1% Triton X),"S. pneumoniae strain T4; T4 12500000 CFU/ml, experiment 1 of 3",-0.7%
same,%hemolytic activity relative to positive control (0.1% Triton X),"S. pneumoniae strain T4; T4 12500000 CFU/ml, experiment 2 of 3",4.6%
same,%hemolytic activity relative to positive control (0.1% Triton X),"S. pneumoniae strain T4; T4 12500000 CFU/ml, experiment 3 of 3",4.6%
same,%hemolytic activity relative to positive control (0.1% Triton X),"S. pneumoniae strain T4; T4 25000000 CFU/ml, experiment 1 of 3",0.2%
same,%hemolytic activity relative to positive control (0.1% Triton X),"S. pneumoniae strain T4; T4 25000000 CFU/ml, experiment 2 of 3",4.4%
same,%hemolytic activity relative to positive control (0.1% Triton X),"S. pneumoniae strain T4; T4 25000000 CFU/ml, experiment 3 of 3",20%
same,%hemolytic activity relative to positive control (0.1% Triton X),"S. pneumoniae strain T4; T4 50000000 CFU/ml, experiment 1 of 3",15.6%
same,%hemolytic activity relative to positive control (0.1% Triton X),"S. pneumoniae strain T4; T4 50000000 CFU/ml, experiment 2 of 3",19.9%
same,%hemolytic activity relative to positive control (0.1% Triton X),"S. pneumoniae strain T4; T4 50000000 CFU/ml, experiment 3 of 3",19.6%
same,%hemolytic activity relative to positive control (0.1% Triton X),"S. pneumoniae strain T4; T4 100000000 CFU/ml, experiment 1 of 3",32%
same,%hemolytic activity relative to positive control (0.1% Triton X),"S. pneumoniae strain T4; T4 100000000 CFU/ml, experiment 2 of 3",30.8%
same,%hemolytic activity relative to positive control (0.1% Triton X),"S. pneumoniae strain T4; T4 100000000 CFU/ml, experiment 3 of 3",19.1%
same,hemolytic activity of S. pyogenes type M1T1,S. pyogenes type M1T1,significantly reduced
same,hemolytic activity of L. monocytogenes type 1,L. monocytogenes type 1,significantly reduced
same,"cell death of macrophages induced by LLO, LDH release","LLO [2]; THP-1, 0.5 μg/ml toxin",significantly reduced cell death
same,"% cytotoxicity relative to positive control (lysis buffer), LDH",LLO [2]; experiment 1 of 4,50.96%
same,"% cytotoxicity relative to positive control (lysis buffer), LDH",LLO [2]; experiment 2 of 4,55.95%
same,"% cytotoxicity relative to positive control (lysis buffer), LDH",LLO [2]; experiment 3 of 4,54.18%
same,"% cytotoxicity relative to positive control (lysis buffer), LDH",LLO [2]; experiment 4 of 4,52.24%
same,cytolysis by PLY in live imaging,PLY [3],protection from cytolysis
same,cytolysis by LLO in live imaging,LLO [4],protected the cells from cytolysis
same,cytolysis by SLO in live imaging,SLO [5],protected the cells from cytolysis
same,binding of FITC-labeled peptide to PLY mutant T4Δply,[6]; fluorescence microscopy,not to the PLY‐deficient strain
same,binding of FITC-labeled peptide to pneumococcal strain T4,[6]; fluorescence microscopy,bound to T4
same,binding of FITC-labelled peptide to capsular mutant strain T4R,"[6]; response to reviewers, Figure 4",binds to T4R
same,"release of IL‐8, TNF‐α and IL‐12 by THP-1 macrophages, SLO",SLO [7],significantly reduced
same,IL-8 levels in THP-1 macrophages,"SLO [7]; 100uM, 18 h",426.5 pg/mL and 475.1 pg/mL and 490.7 pg/mL
same,loss of GFP expression in 3D lung epithelial model,PLY [8],significantly lower
same,LDH release of 3D lung tissue model,PLY [9],significantly reduced
same,number of invading bacteria in 3D lung epithelial model,"S. pneumoniae T4; T4, 100 μM peptide, 2 h",significantly reduced
same,"Mean Colonies at 100X dil, bacterial invasion of lung epithelium models",S. pneumoniae T4; biological replicate n=1,13.3
same,% entry bacteria= (bacteria uptaken/Input)*100,S. pneumoniae T4; n=1,2.25%
same,% entry bacteria= (bacteria uptaken/Input)*100,S. pneumoniae T4; n=2,2.59%
same,"Mean Colonies at 100X dil, bacterial invasion of lung epithelium models",S. pneumoniae T4; n=2,15.3
same,% entry bacteria= (bacteria uptaken/Input)*100,S. pneumoniae T4; n=3,2.54%
same,"Mean Colonies at 100X dil, bacterial invasion of lung epithelium models",S. pneumoniae T4; n=3,15
same,co-localization of intracellular T4R with MRC‐1 and LC3B,"S.pneumoniae T4R; DCs, 100 μM peptide","did not co‐localize with MRC‐1, but co‐stained with LC3B"
same,% bacteria colocalized with MRC-1,"S.pneumoniae T4R; MOI 10, 100 μM peptide, n=50 bacteria, experiment 1 of 2",30%
same,% bacteria colocalized with LC3B,S.pneumoniae T4R; experiment 1 of 2,70%
same,number of bacteria (of n=50) colocalized with LC3B,S.pneumoniae T4R; experiment 1 of 2,35
same,number of bacteria (of n=50) colocalized with MRC-1,S.pneumoniae T4R; experiment 1 of 2,15
same,% bacteria colocalized with LC3B,S.pneumoniae T4R; experiment 2 of 2,76%
same,% bacteria colocalized with MRC-1,S.pneumoniae T4R; experiment 2 of 2,24%
same,number of bacteria (of n=50) colocalized with LC3B,S.pneumoniae T4R; experiment 2 of 2,38
same,number of bacteria (of n=50) colocalized with MRC-1,S.pneumoniae T4R; experiment 2 of 2,12
same,co-localization of T4RΔply in DCs,"S.pneumoniae T4RΔply; DCs, 100 μM peptide, MOI 10, 2 h",had no effect
same,% bacteria colocalized with MRC-1,"S.pneumoniae T4RΔply; 100 μM peptide, n=50 bacteria, experiment 1 of 2",6%
same,% bacteria colocalized with LC3B,S.pneumoniae T4RΔply; experiment 1 of 2,94%
same,number of bacteria (of n=50) colocalized with LC3B,S.pneumoniae T4RΔply; experiment 1 of 2,47
same,number of bacteria (of n=50) colocalized with MRC-1,S.pneumoniae T4RΔply; experiment 1 of 2,3
same,% bacteria colocalized with LC3B,S.pneumoniae T4RΔply; experiment 2 of 2,92%
same,% bacteria colocalized with MRC-1,S.pneumoniae T4RΔply; experiment 2 of 2,8%
same,number of bacteria (of n=50) colocalized with LC3B,S.pneumoniae T4RΔply; experiment 2 of 2,46
same,number of bacteria (of n=50) colocalized with MRC-1,S.pneumoniae T4RΔply; experiment 2 of 2,4
same,"expression of LC3B-I and LC3B-II, western blotting",LC3B,induced higher expression
same,"cell death of macrophages induced by PLY, LDH release",PLY [10],significantly reduced cell death
same,"% cytotoxicity relative to positive control (lysis buffer), LDH",PLY [10]; 100 μM,50.12% and 52.81% and 49.35%
same,"% cytotoxicity relative to positive control (lysis buffer), LDH",PLY [10],52.47%
same,"cell death of macrophages induced by SLO, LDH release",SLO [11],significantly reduced cell death
same,inhibition of hemolysis induced by purified LLO,LLO [12]; at concentrations ranging from 10 to 100 μM,up to 50%
same,IC50,"LLO [12]; read-out: ED50 (median effective dose) vs purified LLO, hemolysis, regression analysis",22.3 µM
same,toxicity by lung histology analysis (H&E),"[13]; 24 h post intranasal administration, 5 µg peptide/mouse",not toxic
same,clinical symptoms,[13]; 24 h post‐administration,did not develop any clinical symptoms
